Assay results reported in patent publication US20220193272A1, “Bleeding Detection Method” (Ethicon, Inc., priority 2020, published 2022).
“Also recorded” adds a separate entry of the source. Peptide text beside a SMILES is read from it. * marks the point of attachment. AMC = Cc1cc(=O)oc2cc(N*)ccc12; Bz = O=C(c1ccccc1)*

What was measured:
[1] = molecular target: T1, thrombin (Homo sapiens, UniProt P00734); assay: Detection of thrombin activity on chromogenic substrate coated onto cellulose matrix; format: biochemical; conditions: 1 mL of 2 mg/mL substrate sprayed on matrix; EVICEL thrombin applied; 30 sec at room temperature; dihydrochloride
T1 construct: purchased EVICEL® fibrin sealant kit product code 3905
Method: S-2238 chromogenic thrombin substrate ((H-D-Phenylalanyl-L-pipecolyl-L-arginine-p-nitroaniline dihydrochloride) which is available from Chromgenix, Instrumentation Laboratory Company, Bedford, Mass., USA catalog number: 82032439), 25 mg, was dissolved in 12.5 mL of water. The resulting concentration was 2 mg/mL (25 mg in 12.5 mL). 1 mL of 2 mg/mL of the chromogenic substrate was sprayed onto one side of a white cellulose matrix (paper towel Scott C-Fold) approx. 4 in×6 cm in using the EVICEL® ASA tip (product code 3921S). The other side was not coated or sprayed with the substrate.
A kit of EVICEL® (product code 3905) was thawed in a 37° C. water bath for 5 min. […] This was repeated on the substrate coated side and also applied in duplicate on the non-substrate coated side.
As a control, thrombin was applied to the non-coated side of the matrix and no color changed was observed.

[2] = molecular target: T1, thrombin; assay: Thrombin activity on chromogenic substrate in solution (dip stick standard tubes); format: biochemical; conditions: 0.2 mL of 2 mg/mL substrate + 1.8 mL water, about 2 min at room temperature
Method: A “dip stick” can be dabbed onto a tissue surface that is suspected of bleeding (FIG. 2). The end of the dip stick can then be placed into a solution containing the visualization agent (chromogenic substrate). The amount of the thrombin present in the dip stick is determined by comparison with a standard curve obtained by running similar tests with known thrombin concentrations.
For example, 0.2 mL of the 2 mg/mL chromogenic substrate was combined with 1.8 mL of water in a […] in 2 borosilicate glass tubes. The solution was gently mixed to distribute the substrate. A third tube was filled with 2 mL of water as an untreated control. To one of the tubes with the diluted substrate, 100 uL of 1000 IU/mL thrombin was added and 10 uL was added to the other tube. After about 2 min at room temperature, a photo was captured of the tubes.
The tube with water is shown as a reference. The intensity of the color change reflected the amount of thrombin.

[3] = molecular target: T1, thrombin; assay: Detection of chromogenic substrate product in plasma activated by thromboplastin reagent; format: biochemical; conditions: 0.4 mL PNP + 0.2 mL thromboplastin reagent with calcium + 0.2 mL of 2 mg/mL substrate; room temperature
Method: Plasma has a background color (straw color). To test whether the product of the chromogenic substrate can be detected in plasma, 0.4 mL pooled normal plasma (PNP from George King Biomedical) was activated by a thromboplastin reagent (0.2 mL, Neoplastin CL plus product number 00375) with calcium to allow thrombin generation.
Either 0.2 mL saline (as a control) or 0.2 mL of 2 mg/mL of the chromogenic substrate was added to the tube and mixed on the tube rocker.
Evidence of clot formation was present after approx. 30 sec at room temperature. In view of the presence of fibrinogen in plasma, complete clot formation, i.e. solid/stable clot, occurred at approx. 2 min at room temperature.

[4] = molecular target: T1, thrombin; assay: Detection of thrombin in solution with fluorescent substrates; format: biochemical
Method: 1. 2 mL of 0, 10 IU/mL and 100 IU/mL thrombin in saline (none, low, and high thrombin) was prepared in duplicates and tubes were labeled accordingly. Stock of EVICEL® thrombin is about 1000 IU/mL.
2. A defined amount of thrombin substrate was added to thrombin solutions as follows and fluorescence of the mixture was evaluated. The substrate stock solutions were diluted 1:10 in Tris Buffered saline (TBS) buffer (180 uL TBS and 20 uL of stock substrate solution). TBS buffer comprises 20 mM Tris and 150 mM sodium chloride, and is adjusted to pH 7.4. 0.05 mL of the diluted stock solution (1:10 dilution) was added to the 2 mL of thrombin prepared in step 1, mixed at room temperature, and incubated for about 3 mins.
3. Images of tubes were captured while shining with light (using various light emitting sources) and responses were compared for different amounts of thrombin.

[5] = molecular target: T1, thrombin; assay: Detection of thrombin in solution, repeated with higher amounts of substrate; format: biochemical; parameters: key to fluorescence signal, relative rank: +++: strongest fluorescence signal; ++: signal was greater; +: fluorescence signal was lowest; conditions: 100 uL at 5 mg/mL in DMSO [500 ug total substrate], 100 IU/mL thrombin, approx. 5 min
Method: 100 IU/mL of thrombin was used.
To 1.0 mL of 100 IU/mL thrombin in saline, 100 uL of Sigma substrate at 5 mg/mL in DMSO was added [500 ug total substrate].
To 1.0 mL of 100 IU/mL thrombin in saline, 100 uL of HTI substrate diluted in TBS at 0.25 mg/mL (50 uL HTI manufacture's stock and 1.5 mL TBS, i.e. 1:30 dilution) was added [25 ug total substrate].
To 1.0 mL of 100 IU/mL thrombin in saline, 10 uL of HTI manufacture's stock (7.5 mg/mL in DMSO) was added [75 ug total substrate]
Images of tubes were captured under various lighting conditions (using various light sources) and responses were compared.
The experiments were carried out at room temperature.

[6] = molecular target: T1, thrombin; assay: Detection of thrombin on a surface (cellulose matrix) with fluorogenic substrates; format: biochemical; conditions: approx. 60 min after spraying; 365 nm flashlight only; after moving the matrix out of its original position
Method: 2 mL solutions of 0, 10 IU/mL and 100 IU/mL thrombin in saline (none, and low and high thrombin) were prepared using a stock solution of EVICEL® thrombin of about 1000 IU/mL. 1 mL of each thrombin dilution was sprayed onto white cellulose matrix (paper towel Scott C-Fold) in a designated area.
Immediately a defined amount of thrombin substrate, prepared as follows, was sprayed on the thrombin and coated cellulose matrix and fluorescence of the mixture was evaluated. The substrate stock solutions were diluted 1:10 in TBS (using 900 uL TBS and 100 uL of stock substrate solution). 1.0 mL of the diluted stock solution (1:10 dilution) was sprayed across all three regions of the cellulose matrix coated with thrombin at different levels.
Images of cellulose matrix under various lighting conditions (with various light sources) were captured and the response was compared for different amounts of thrombin and substrates. The Experiments were carried out at room temperature.

[7] = molecular target: T1, thrombin; assay: Detection of thrombin generated in plasma with fluorogenic substrates; format: biochemical
Method: (§1) Pooled normal plasma (PNP) was purchased from George King Biomedical was thawed at 37 C for 5 min. 0.5 mL of PNP was aliquoted into 3-10×75 mm borosilicate glass tubes. To each to glass tube, 0.10 mL stock fluorescent substrate or 0.10 mL stock TBS was added. Tubes were labeled accordingly.
(§2) 1.0 mL of PT reagent (Diagnostica Stago, STA Neoplastine Cl Plus containing calcium) was dispensed into the three tubes.
Images of tubes were captured while using shining light (using various light sources) and response was compared for different substrates.

[8] = test system: pooled normal plasma; assay: Clotting of pooled normal plasma with PT reagent in presence of substrate; format: biochemical; conditions: 0.5 mL PNP + 0.10 mL stock (5 mg/mL in DMSO) + 1.0 mL PT reagent; room temperature
Method: as §1, §2
The blank/TBS control clotted in approx. 10 sec (as expected for a PT clotting time).

[9] = test system: thrombin; assay: In vivo detection of thrombin at bleeding site, canine model with liver and spleen abrasions
Method: In this in vivo study, the ability to detect thrombin on a surface in a live animal after creating a bleeding defect was assessed in a canine model with liver and spleen abrasions.
Diffuse/oozing bleeding abrasion defect was created using cautery tip cleaning pad.
0.5 mL of Sigma fluorogenic substrate (Stock solution 5 mg/mL concentration in DMSO protected from light) was sprayed onto bleeding site and visualized with flashlight (356 nm) 2-3 min after application.

Row | SMILES | coloration on substrate coated side of cellulose matrix [1] | coloration of tube ([2]; 10 uL of 1000 IU/mL thrombin) | coloration of tube ([2]; 100 uL of 1000 IU/mL thrombin) | yellow coloration/hue of clotted plasma compared with the saline control [3] | time within which all of the substrate was cleaved ([4]; 100 IU/mL thrombin, no change in intensity between 3 min and 60 min) [min] | fluorescence ([4]; approx. 3 min, ambient overhead lighting and 365 nm flashlight, 100 IU/mL thrombin) | color change ([4]; approx. 3 min, ambient overhead lighting only, thrombin 100, 10 and 0 IU/mL) | fluorescence ([4]; approx. 60 min, 365 nm flashlight only, 100 IU/mL thrombin) | fluorescence signal, relative rank ([5]; 365 nm flashlight only) | fluorescence signal ([5]; ambient overhead lighting and 365 nm flashlight) | fluorescence on the surface underneath the cellulose matrix [6] | color change in plasma ([7]; 5 min after combining PNP, substrate and PT reagent, ambient overhead lighting only) | fluorescence signal in plasma ([7]; approx. 5 min, 365 nm flashlight only, 0.10 mL stock (Sigma 5 mg/mL in DMSO; HTI 0.25 mg/mL in TBS)) | fluorescence in plasma ([7]; approx. 5 min, ambient overhead lighting and 365 nm flashlight, 0.10 mL stock (Sigma 5 mg/mL in DMSO)) | time sample remained fluid before clotting [8] | fluorescence signal at bleeding site ([9]; 0.5 mL of 5 mg/mL in DMSO sprayed onto bleeding site, flashlight (356 nm) 2-3 min after application, no exogenous thrombin added) | detection of bleeding in a liver abrasion model ([9]; canine, sprayed onto bleeding site)
1 | Cl.Cl.NC(N)=NCCC[C@H](NC(=O)[C@@H]1CCCCN1C(=O)[C@H](N)Cc1ccccc1)C(=O)Nc1ccc([N+](=O)[O-])cc1 [S-2238, H-D-Phenylalanyl-L-pipecolyl-L-arginine-p-nitroaniline dihydrochloride] | yellow coloration (dark streaks) was evident; also recorded: change in coloration was evident | faint yellow coloration | yellow coloration | significantly stronger | – | – | – | – | – | – | – | – | – | – | – | – | –
2 | Cc1cc(=O)oc2cc(NC(=O)[C@H](CCCN=C(N)N)NC(=O)[C@@H](NC(=O)[C@H](Cc3ccccc3)NC(=O)c3ccccc3)C(C)C)ccc12 [Sigma substrate] (Bz-Phe-Val-Arg-{AMC}) | – | – | – | – | ≤ 3 | displaying fluorescence | no color change observed | displaying fluorescence | +++ | strongest | spots of fluorescence could be seen | no color change was observed | strong fluorescence signal | strong fluorescence | approx. 3 min | could be detected | enabled detection of bleeding
